The text below walks through data of US20080207708A1, “Oxazole and Thiazole Compounds and Their Use in the Treatment of Pge2 Mediated Disorders” (GLAXO GROUP LIMITED, priority 2005, published 2008).

The structures appear in SMILES notation. Where a name gives a salt, the structure may show the parent alone. Some results are limits rather than exact numbers.

For assay [1], the target named is T1, EP1 receptors (Homo sapiens, UniProt P34995).
T1 sequence (P34995 1-402): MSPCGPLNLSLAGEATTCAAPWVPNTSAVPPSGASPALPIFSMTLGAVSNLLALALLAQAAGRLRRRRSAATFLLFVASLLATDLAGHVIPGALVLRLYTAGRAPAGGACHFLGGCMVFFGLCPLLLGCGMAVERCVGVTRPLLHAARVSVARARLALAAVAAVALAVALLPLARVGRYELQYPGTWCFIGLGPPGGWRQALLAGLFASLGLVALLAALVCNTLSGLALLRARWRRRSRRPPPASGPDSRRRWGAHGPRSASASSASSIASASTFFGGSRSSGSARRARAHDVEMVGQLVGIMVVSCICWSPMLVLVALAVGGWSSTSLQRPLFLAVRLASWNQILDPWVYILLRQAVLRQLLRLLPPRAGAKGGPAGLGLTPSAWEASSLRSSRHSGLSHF
Kind of assay: human EP1 calcium mobilisation assay (CHO-K1 cells, FLIPR, PGE2). In kind it is cell-based. The arrangement: expressed in transfected cells; host or cells: CHO-K1 cells, pCIN vector. The settings on record: free bases or sodium salts; averages of a number of experiments; read-out: functional pKi value, human EP1 calcium mobilisation assay (converted). A digest of the protocol:
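CHO-K1 cells stably transfected with human EP1 cDNA, loaded with Fluo-4 AM after 24 h culture at 37° C. Compounds added first, then PGE2; antagonism read as inhibition of PGE2-induced intracellular calcium rise on FLIPR. pIC50 taken as concentration giving half-maximal inhibition, from curve fitting.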
Background: A change in cytosolic calcium serves as a functional read-out for many receptors and channels.

In assay [2] the target is T1, EP1 receptors. Kind of assay: Binding assay for the human prostanoid EP1 receptor (competition with [3H]-PGE2). The arrangement: expressed in transfected cells; host or cells: CHO-K1 cells, membrane fraction. The settings on record: [3H]-PGE2 competition; averages of a number of experiments; read-out: pIC50 value, binding assay for the human prostanoid EP1 receptor (converted). A digest of the protocol:
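Competition against 3 nM (final) tritiated PGE2 at 30° C for 30 min, pH 6 MES assay buffer, using membranes of stably transfected CHO-K1 cells. Filter-retained counts by scintillation; nonlinear curve fitting gives concentration inhibiting 50% of specific binding.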

Regarding `OCc1cccc2nc(-c3csc(Cc4cc(Cl)ccc4OCc4ccccc4)n3)[nH]c12` [Example 143, {2-[2-({5-Chloro-2-[(phenylmethyl)oxy]phenyl}methyl)-1,3-thiazol-4-yl]-1H-benzimidazol-4-yl}methanol hydrochloride], the Ki at EP1 receptors [1] was above 1 µM. Further, the IC50 on EP1 receptors [2] was at most 1 µM.
`CC(C)COc1ccc(Cl)cc1Cc1nc(-c2nc3ccc(N4CCOCC4)nc3[nH]2)cs1` [Example 144, 2-[2-({5-Chloro-2-[(2-methylpropyl)oxy]phenyl}methyl)-1,3-thiazol-4-yl]-5-(4-morpholinyl)-1H-imidazo[4,5-b]pyridine]: the Ki at EP1 receptors [1] was at most 0.0316 µM. For the same compound, the IC50 at EP1 receptors [2] is at most 1 µM.
For the compound `CC(C)COc1ccc(Cl)cc1Cc1nc(-c2nc3ccc(N4CCCC4)nc3[nH]2)cs1` [Example 145, 2-[2-({5-Chloro-2-[(2-methylpropyl)oxy]phenyl}methyl)-1,3-thiazol-4-yl]-5-(1-pyrrolidinyl)-1H-imidazo[4,5-b]pyridinehydrochloride], the Ki on EP1 receptors [1] was below 1 µM. On EP1 receptors [2], the IC50 was at most 1 µM.
The corresponding values for `CC(C)COc1ccc(Cl)cc1Cc1nc(-c2nc3ccc(N4CCN(C)CC4)nc3[nH]2)cs1` [Example 146, 2-[2-({5-chloro-2-[(2-methylpropyl)oxy]phenyl}methyl)-1,3-thiazol-4-yl]-5-(4-methyl-1-piperazinyl)-1H-imidazo[4,5-b]pyridinehydrochloride] are below 1 µM and at most 0.0316 µM.
On the same counts, the results for `CC(C)COc1ccc(Cl)cc1Cc1nc(-c2nc3ccc(N4CCCCC4)nc3[nH]2)cs1` [Example 147] are below 1 µM and at most 1 µM.
As to `CN1CCN(c2ccc3nc(-c4csc(Cc5cc(Cl)ccc5OCc5ccccc5)n4)[nH]c3c2)CC1` [Example 148, 2-[2-({5-Chloro-2-[(phenylmethyl)oxy]phenyl}methyl)-1,3-thiazol-4-yl]-5-(4-methyl-1-piperazinyl)-1H-benzimidazole hydrochloride], the Ki on EP1 receptors [1] is below 1 µM. The IC50 on EP1 receptors [2] was at most 0.0316 µM.
For the compound `Clc1ccc(OCc2ccccc2)c(Cc2nc(-c3nc4ccc(N5CCOCC5)cc4[nH]3)cs2)c1` [Example 149, 2-[2-({5-Chloro-2-[(phenylmethyl)oxy]phenyl}methyl)-1,3-thiazol-4-yl]-5-(4-morpholinyl)-1H-benzimidazole hydrochloride], the Ki on EP1 receptors [1] is below 1 µM. Besides, on EP1 receptors [2], the IC50 is at most 0.0316 µM.
With `Clc1ccc(OCc2ccccc2)c(Cc2nc(-c3nc4cc5cn[nH]c5cc4[nH]3)cs2)c1` [Example 150, 6-[2-({5-Chloro-2-[(phenylmethyl)oxy]phenyl}methyl)-1,3-thiazol-4-yl]-1,5-dihydroimidazo[4,5-f]indazolehydrochloride], at EP1 receptors [1], the Ki is below 1 µM. Further, the IC50 at EP1 receptors [2] was at most 0.0316 µM.
Turning to `CN1CCN(c2ccc3[nH]c(-c4csc(Cc5cc(Cl)ccc5OCc5ccccc5)n4)nc3n2)CC1` [Example 151, 2-[2-({5-Chloro-2-[(phenylmethyl)oxy]phenyl}methyl)-1,3-thiazol-4-yl]-5-(4-methyl-1-piperazinyl)-1H-imidazo[4,5-b]pyridine hydrochloride], at EP1 receptors [1], the Ki was below 1 µM. Besides, the IC50 on EP1 receptors [2] is at most 0.0316 µM.
In the case of `CN(C)c1ccc2nc(-c3csc(Cc4cc(Cl)ccc4OCc4ccccc4)n3)[nH]c2n1` [Example 152, 2-[2-({-5-Chloro-2-[(phenylmethyl)oxy]phenyl}methyl)-1,3-thiazol-4-yl]-N,N-dimethyl-1H-imidazo[4,5-b]pyridin-5-amine hydrochloride], the Ki at EP1 receptors [1] was below 1 µM. Further, the IC50 at EP1 receptors [2] was at most 0.0316 µM.
Turning to `OCCc1ccc2nc(-c3csc(Cc4cc(Cl)ccc4OCc4ccccc4)n3)[nH]c2c1` [Example 153, 2-{2-[2-({5-Chloro-2-[(phenylmethyl)oxy]phenyl}methyl)-1,3-thiazol-4-yl]-1H-benzimidazol-5-yl}ethanol], the Ki at EP1 receptors [1] is below 1 µM. Besides, the IC50 at EP1 receptors [2] was at most 0.0316 µM.
